# Several values for one entry are separate records, joined by “and”; a condition that tells them apart may be missing. Equal values may be shown once. Entries after “also recorded” stand apart in the source; their conditions may differ. Read-outs that look alike come from different tables or passages of the source.
# Key:
# [1] = Metabolic stability in human liver microsomes (HLM)
# [2] = Brain uptake in mice 24 hours post-administration; type: in vivo, mouse
# [3] = Metabolic stability in mouse liver microsomes (MLM)
# [4] = biological target: NTRK3 (Homo sapiens (Human), UniProt Q16288); experiment: NTRK3 inhibition (IC50); conditions: read-out: NTRK3 IC50
# [5] = biological target: NTRK1 (Homo sapiens (Human), UniProt P04629); experiment: NTRK1 inhibition (IC50); conditions: read-out: NTRK1 IC50
# [6] = Plasma ALT and AST in mice after a high dose (50 mg/kg); type: in vivo, mouse
# [7] = biological target: T1, NTRK2 (Homo sapiens (Human), UniProt Q16620); experiment: NTRK2 inhibition (IC50); type: biochemical
# [8] = tested on: 192 kinases; experiment: Promega K192 cell-based NanoBRET kinase occupancy assay (panel); conditions: 1 μM
# Method: (§1) Similarly, the selectivity of CDD-3031 for NTRK kinases was evaluated in a kinase occupancy assay (Promega K192 cell-based NanoBRET assay) using 192 kinases (Table 4).
# [9] = Endometriosis mouse model, liver and kidney toxicity (organ weight, ALT, AST); type: in vivo; design: ALT (Mean ± SD) / AST (Mean ± SD): unit not given here
# Method: (§2) In one aspect, the present disclosure provides exemplary data relating to the administration of NTRK2 inhibitors in a mouse model of endometriosis (FIG. 14). In certain embodiments, the recipient mouse is administered the NTRK2 inhibitor and/or controls on day 14 after intraperitoneal injection of endometrium of the donor mouse. In certain embodiments, the recipient mouse is sacrificed and quantitatively assessed on day 28.
# [10] = biological target: DYRK1A (Homo sapiens (Human), UniProt Q13627); experiment: Promega K192 cell-based NanoBRET kinase occupancy assay
# Method: as §1
# [11] = biological target: ITK (Homo sapiens (Human), UniProt Q08881); experiment: as above
# Method: as §1
# [12] = biological target: PKMYT1 (Homo sapiens (Human), UniProt Q99640); experiment: as above
# Method: as §1
# [13] = biological target: NEK5 (Homo sapiens (Human), UniProt Q6P3R8); experiment: as above
# Method: as §1
# [14] = biological target: TEK (Homo sapiens (Human), UniProt Q02763); experiment: as above
# Method: as §1
# [15] = biological target: T1, NTRK2; experiment: as above
# Method: as §1
# [16] = biological target: TIE1 (Homo sapiens (Human), UniProt P35590); experiment: as above
# Method: as §1
# [17] = biological target: SGK1 (Homo sapiens (Human), UniProt O00141); experiment: as above
# Method: as §1
# [18] = biological target: MKNK2 (Homo sapiens (Human), UniProt Q9HBH9); experiment: as above
# Method: as §1
# [19] = biological target: MAP3K19 (Homo sapiens (Human), UniProt Q56UN5); experiment: as above
# Method: as §1
# [20] = tested on: endometriotic lesions; experiment: Endometriosis mouse model, lesion efficacy; type: in vivo; conditions: 10 mg/kg, excised lesions
# Method: FIGS. 17A-17F depict the robust efficacy of the inhibitory compounds of the present disclosure as NTRK2 inhibitors for inhibition of endometriotic lesion growth in mice utilizing CDD-3132 as an example. FIG. 17A provides a schematic overview of the experiment performed. FIGS. 17B-17C provide photographs showing excised lesions with administration of a control (FIG. 17B) or CDD-3132 (10 mg/kg/day) (FIG. 17C).
# as §2
# [21] = Pharmacokinetics of CDD-3031 in mice, oral gavage; type: in vivo, mouse; conditions: oral gavage 50 mg/kg, n = 3, mean ± SD
# Method: CDD-2330 was dissolved in 10% DMSO+0.5% methyl cellulose at 5 mg/mL. CDD-2330 was orally delivered at 50 mg/kg to mice (n=4). Blood samples were collected at 0, 0.25, 0.5, 1, 2, 4, 6, 8, and 24 h. Samples were analyzed by LC-MS, and the concentration of CDD-2330 was quantified with a standard curve (range: 0-10 μM). CDD-3031 was administered by oral gavage at a dose of 50 mg/kg. Blood samples were collected at […], 0.167, 0.25, 0.5, 1, 2, 4, 6, 8, and 24 h.
# [22] = plasma, 24 h after 50 mg/kg CDD-3031 by oral gavage, individual mice
# [23] = i.p. dose of 10 mg/kg/day for 14 days
# PKMYT1, sequence (Q99640 whole entry): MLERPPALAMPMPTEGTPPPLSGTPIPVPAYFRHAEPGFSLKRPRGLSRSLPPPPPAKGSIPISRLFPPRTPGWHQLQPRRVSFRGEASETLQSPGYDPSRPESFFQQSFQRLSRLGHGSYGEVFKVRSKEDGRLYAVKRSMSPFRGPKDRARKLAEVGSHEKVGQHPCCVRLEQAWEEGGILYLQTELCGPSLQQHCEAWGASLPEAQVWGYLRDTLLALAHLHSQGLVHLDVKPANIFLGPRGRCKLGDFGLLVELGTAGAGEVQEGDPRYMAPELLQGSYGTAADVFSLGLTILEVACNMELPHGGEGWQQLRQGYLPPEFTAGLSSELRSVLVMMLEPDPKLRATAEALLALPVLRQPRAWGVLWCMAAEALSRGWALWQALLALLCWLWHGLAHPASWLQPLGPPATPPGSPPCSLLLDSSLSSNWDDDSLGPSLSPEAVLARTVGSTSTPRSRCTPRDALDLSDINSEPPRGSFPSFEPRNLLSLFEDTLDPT
# TEK, sequence (Q02763 23-1124): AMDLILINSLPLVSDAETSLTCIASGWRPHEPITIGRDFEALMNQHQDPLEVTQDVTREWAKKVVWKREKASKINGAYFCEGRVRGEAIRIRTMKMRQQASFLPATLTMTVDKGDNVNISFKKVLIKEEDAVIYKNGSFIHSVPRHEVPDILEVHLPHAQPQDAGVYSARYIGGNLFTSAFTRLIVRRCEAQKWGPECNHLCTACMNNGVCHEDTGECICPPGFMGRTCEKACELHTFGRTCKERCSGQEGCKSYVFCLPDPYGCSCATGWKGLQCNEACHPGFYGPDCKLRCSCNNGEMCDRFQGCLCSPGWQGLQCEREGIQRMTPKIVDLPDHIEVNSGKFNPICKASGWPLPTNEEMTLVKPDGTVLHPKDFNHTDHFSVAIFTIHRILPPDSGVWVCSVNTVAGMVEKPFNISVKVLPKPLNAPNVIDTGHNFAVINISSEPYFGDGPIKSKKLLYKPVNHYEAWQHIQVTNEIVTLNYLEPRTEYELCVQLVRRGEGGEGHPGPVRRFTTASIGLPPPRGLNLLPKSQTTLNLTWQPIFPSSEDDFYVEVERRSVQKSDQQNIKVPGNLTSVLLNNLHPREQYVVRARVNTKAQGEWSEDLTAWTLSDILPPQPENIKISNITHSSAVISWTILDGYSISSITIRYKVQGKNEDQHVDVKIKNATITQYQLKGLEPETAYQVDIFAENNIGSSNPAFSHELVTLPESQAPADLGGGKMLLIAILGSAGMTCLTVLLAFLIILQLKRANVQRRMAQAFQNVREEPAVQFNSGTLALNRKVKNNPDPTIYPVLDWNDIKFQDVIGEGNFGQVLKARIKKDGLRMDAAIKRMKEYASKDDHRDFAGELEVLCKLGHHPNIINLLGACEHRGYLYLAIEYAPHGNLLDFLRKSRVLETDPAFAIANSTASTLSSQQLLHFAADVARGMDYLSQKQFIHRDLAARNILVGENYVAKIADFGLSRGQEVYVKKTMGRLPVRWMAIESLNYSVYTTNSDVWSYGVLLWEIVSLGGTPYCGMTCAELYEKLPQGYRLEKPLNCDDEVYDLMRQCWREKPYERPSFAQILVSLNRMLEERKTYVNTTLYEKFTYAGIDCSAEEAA
# NEK5, sequence (Q6P3R8 whole entry): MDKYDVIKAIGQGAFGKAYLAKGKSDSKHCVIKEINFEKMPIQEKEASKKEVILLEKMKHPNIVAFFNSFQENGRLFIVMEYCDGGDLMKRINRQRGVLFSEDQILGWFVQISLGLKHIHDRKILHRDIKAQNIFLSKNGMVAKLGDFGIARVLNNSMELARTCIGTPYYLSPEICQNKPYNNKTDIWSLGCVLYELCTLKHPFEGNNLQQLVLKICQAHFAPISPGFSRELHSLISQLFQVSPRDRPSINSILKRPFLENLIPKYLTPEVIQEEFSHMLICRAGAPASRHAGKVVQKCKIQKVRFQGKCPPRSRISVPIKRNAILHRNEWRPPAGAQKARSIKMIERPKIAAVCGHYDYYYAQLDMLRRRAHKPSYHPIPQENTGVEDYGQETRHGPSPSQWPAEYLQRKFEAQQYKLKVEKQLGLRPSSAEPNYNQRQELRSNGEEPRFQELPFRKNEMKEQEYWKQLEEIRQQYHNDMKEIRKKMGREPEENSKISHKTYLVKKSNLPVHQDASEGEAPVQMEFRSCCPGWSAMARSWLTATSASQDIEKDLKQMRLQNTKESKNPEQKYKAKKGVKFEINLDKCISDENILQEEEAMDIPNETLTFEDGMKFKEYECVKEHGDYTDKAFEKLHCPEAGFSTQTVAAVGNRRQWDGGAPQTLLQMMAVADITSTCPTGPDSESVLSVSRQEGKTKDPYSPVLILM
# ITK, sequence (Q08881 whole entry): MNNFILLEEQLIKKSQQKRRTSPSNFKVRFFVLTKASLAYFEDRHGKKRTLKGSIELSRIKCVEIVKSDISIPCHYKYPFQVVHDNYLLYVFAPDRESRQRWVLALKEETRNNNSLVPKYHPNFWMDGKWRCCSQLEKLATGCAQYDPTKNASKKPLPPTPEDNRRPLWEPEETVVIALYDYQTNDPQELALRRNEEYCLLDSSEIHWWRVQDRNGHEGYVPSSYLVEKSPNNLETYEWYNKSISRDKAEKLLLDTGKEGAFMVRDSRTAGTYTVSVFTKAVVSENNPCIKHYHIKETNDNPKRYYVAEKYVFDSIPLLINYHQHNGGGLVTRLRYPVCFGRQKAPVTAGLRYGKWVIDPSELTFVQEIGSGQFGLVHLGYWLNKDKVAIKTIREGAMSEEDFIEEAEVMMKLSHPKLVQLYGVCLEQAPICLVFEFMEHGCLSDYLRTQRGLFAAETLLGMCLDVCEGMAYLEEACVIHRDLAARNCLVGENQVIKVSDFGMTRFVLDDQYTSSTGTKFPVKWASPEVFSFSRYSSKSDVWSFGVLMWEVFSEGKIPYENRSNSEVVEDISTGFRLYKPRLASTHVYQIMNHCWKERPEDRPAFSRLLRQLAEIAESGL
# TIE1, sequence (P35590 22-1138): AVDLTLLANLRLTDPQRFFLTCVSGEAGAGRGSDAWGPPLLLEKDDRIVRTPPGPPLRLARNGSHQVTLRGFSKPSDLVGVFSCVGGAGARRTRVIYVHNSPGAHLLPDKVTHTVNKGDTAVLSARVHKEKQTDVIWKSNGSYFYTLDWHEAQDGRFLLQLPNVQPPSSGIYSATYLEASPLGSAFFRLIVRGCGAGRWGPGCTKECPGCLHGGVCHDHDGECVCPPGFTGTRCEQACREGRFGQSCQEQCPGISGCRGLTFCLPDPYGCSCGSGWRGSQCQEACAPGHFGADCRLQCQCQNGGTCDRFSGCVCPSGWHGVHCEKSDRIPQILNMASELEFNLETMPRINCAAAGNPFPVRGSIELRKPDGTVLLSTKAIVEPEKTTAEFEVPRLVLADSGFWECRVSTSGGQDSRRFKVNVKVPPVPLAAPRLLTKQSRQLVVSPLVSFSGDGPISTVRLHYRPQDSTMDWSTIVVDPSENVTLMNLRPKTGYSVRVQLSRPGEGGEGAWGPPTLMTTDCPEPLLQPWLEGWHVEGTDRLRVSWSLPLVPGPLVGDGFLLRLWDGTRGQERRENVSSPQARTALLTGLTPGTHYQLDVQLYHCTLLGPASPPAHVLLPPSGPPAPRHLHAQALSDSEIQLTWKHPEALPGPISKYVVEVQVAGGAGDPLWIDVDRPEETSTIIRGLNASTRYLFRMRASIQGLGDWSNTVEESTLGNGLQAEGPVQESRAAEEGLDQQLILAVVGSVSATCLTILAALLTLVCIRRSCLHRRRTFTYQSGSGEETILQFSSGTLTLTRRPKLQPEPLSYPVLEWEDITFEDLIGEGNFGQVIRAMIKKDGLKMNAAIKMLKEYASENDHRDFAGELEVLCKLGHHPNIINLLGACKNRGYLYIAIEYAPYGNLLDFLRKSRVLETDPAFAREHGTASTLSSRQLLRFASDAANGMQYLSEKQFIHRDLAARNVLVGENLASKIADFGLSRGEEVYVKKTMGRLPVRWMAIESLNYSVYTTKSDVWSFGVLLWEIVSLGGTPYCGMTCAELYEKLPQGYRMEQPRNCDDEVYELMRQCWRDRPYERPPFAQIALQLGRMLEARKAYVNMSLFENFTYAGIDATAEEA
# T1 sequence (Q16620 32-822): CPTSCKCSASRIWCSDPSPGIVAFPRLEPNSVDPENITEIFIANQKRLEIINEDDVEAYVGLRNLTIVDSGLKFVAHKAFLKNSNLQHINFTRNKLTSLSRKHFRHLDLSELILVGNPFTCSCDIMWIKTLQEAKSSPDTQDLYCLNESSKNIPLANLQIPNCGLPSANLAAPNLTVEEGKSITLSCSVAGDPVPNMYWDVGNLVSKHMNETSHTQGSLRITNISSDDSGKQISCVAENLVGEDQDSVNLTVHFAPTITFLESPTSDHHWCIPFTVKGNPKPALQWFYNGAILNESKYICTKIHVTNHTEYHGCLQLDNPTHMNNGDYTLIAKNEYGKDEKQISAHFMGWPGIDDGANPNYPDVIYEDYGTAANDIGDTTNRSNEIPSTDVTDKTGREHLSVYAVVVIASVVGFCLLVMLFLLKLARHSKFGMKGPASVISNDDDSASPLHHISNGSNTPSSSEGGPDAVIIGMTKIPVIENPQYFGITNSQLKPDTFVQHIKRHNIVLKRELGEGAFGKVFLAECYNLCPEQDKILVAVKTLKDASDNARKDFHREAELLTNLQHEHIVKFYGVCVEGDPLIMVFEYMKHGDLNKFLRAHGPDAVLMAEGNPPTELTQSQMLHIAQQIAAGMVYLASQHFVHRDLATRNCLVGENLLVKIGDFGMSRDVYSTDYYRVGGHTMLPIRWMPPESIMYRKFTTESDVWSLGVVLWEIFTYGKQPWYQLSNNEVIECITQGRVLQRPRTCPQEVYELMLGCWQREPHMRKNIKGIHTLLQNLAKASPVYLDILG
smiles,measurement,setting,value
"CN(Cc1ccn2ncc(C(N)=O)c2c1)C(=O)Nc1ccc(OC(F)(F)F)cc1 [CDD-3031, 5-((1-methyl-3-(4-(trifluoromethoxy)phenyl)ureido)methyl)pyrazolo[1,5-a]pyridine-3-carboxamide]",half-life,[1],> 16.7 h
same,brain uptake relative to controls,[2]; brain and plasma 24 hours post-administration,"low brain penetration; also recorded: relatively low brain uptake compared to chlorpromazine (positive control), but a high uptake as compared to hydroxyzine (negative control)"
same,concentration at 24 h,"[2]; mouse, brain, 24 h, read-out: Brain Concentration at 24 h (ng/mg)",350 ng/g
same,half-life,[3],13.1 h
same,microsomal CLint,[3],1.8 µL/min/mg
same,IC50,[4],25.3 nM
same,IC50,[5],153 nM
same,potential liver and other tissue toxicity,"[6]; high dose, 50 mg/kg",minimal effects
same,ALT,[6]; [22],35.89 IU/L and 24.49 IU/L and 52.86 IU/L and 48.18 IU/L
same,AST,[6]; [22],86.81 IU/L and 64.53 IU/L and 68.33 IU/L and 72.84 IU/L
same,IC50,[7],11.9 nM
same,selectivity in 192-kinase occupancy panel,[8],greater selectivity for NTRK2 and NTRK1
same,effect on liver and/or kidney weight and/or serum elevation of ALT and AST,"[9]; 10 mg/kg, mice with endometriotic lesions",little to no effect
same,ALT (Mean ± SD),[9]; [23],16.6 ± 2.6
same,AST (Mean ± SD),[9]; [23],46.9 ± 23.4
same,impact on liver and kidney weights,[9]; mice treated for 14 days,no significant impact
same,receptor occupancy at 1 µM,"[10]; average, read-out: DYRK1A kinase occupancy, Average (%)",6.5%
same,receptor occupancy at 1 µM,"[10]; replicate 1, read-out: DYRK1A kinase occupancy, Replicate 1 (%)",8.58%
same,receptor occupancy at 1 µM,"[10]; replicate 2, read-out: DYRK1A kinase occupancy, Replicate 2 (%)",4.42%
same,receptor occupancy at 1 µM,"[11]; average, read-out: ITK kinase occupancy, Average (%)",5.61%
same,receptor occupancy at 1 µM,"[11]; replicate 1, read-out: ITK kinase occupancy, Replicate 1 (%)",14.2%
same,receptor occupancy at 1 µM,"[11]; replicate 2, read-out: ITK kinase occupancy, Replicate 2 (%)",-2.94%
same,receptor occupancy at 1 µM,"[12]; average, read-out: PKMYT1 kinase occupancy, Average (%)",4.17%
same,receptor occupancy at 1 µM,"[12]; replicate 1, read-out: PKMYT1 kinase occupancy, Replicate 1 (%)",5.47%
same,receptor occupancy at 1 µM,"[12]; replicate 2, read-out: PKMYT1 kinase occupancy, Replicate 2 (%)",2.88%
same,receptor occupancy at 1 µM,"[13]; average, read-out: NEK5 kinase occupancy, Average (%)",5.02%
same,receptor occupancy at 1 µM,"[13]; replicate 1, read-out: NEK5 kinase occupancy, Replicate 1 (%)",-0.81%
same,receptor occupancy at 1 µM,"[13]; replicate 2, read-out: NEK5 kinase occupancy, Replicate 2 (%)",10.8%
same,receptor occupancy at 1 µM,"[14]; average, read-out: TEK kinase occupancy, Average (%)",10.2%
same,receptor occupancy at 1 µM,"[14]; replicate 1, read-out: TEK kinase occupancy, Replicate 1 (%)",13.1%
same,receptor occupancy at 1 µM,"[14]; replicate 2, read-out: TEK kinase occupancy, Replicate 2 (%)",7.34%
same,receptor occupancy at 1 µM,"[15]; average, read-out: NTRK2 kinase occupancy, Average (%)",92.9%
same,receptor occupancy at 1 µM,"[15]; replicate 1, read-out: NTRK2 kinase occupancy, Replicate 1 (%)",94.6%
same,receptor occupancy at 1 µM,"[15]; replicate 2, read-out: NTRK2 kinase occupancy, Replicate 2 (%)",91.2%
same,receptor occupancy at 1 µM,"[16]; average, read-out: TIE1 kinase occupancy, Average (%)",14%
same,receptor occupancy at 1 µM,"[16]; replicate 1, read-out: TIE1 kinase occupancy, Replicate 1 (%)",8.54%
same,receptor occupancy at 1 µM,"[16]; replicate 2, read-out: TIE1 kinase occupancy, Replicate 2 (%)",19.5%
same,receptor occupancy at 1 µM,"[17]; average, read-out: SGK1 kinase occupancy, Average (%)",4.31%
same,receptor occupancy at 1 µM,"[17]; replicate 1, read-out: SGK1 kinase occupancy, Replicate 1 (%)",1.93%
same,receptor occupancy at 1 µM,"[17]; replicate 2, read-out: SGK1 kinase occupancy, Replicate 2 (%)",6.69%
same,receptor occupancy at 1 µM,"[18]; average, read-out: MKNK2 kinase occupancy, Average (%)",4.61%
same,receptor occupancy at 1 µM,"[18]; replicate 1, read-out: MKNK2 kinase occupancy, Replicate 1 (%)",7.96%
same,receptor occupancy at 1 µM,"[18]; replicate 2, read-out: MKNK2 kinase occupancy, Replicate 2 (%)",1.26%
same,receptor occupancy at 1 µM,"[19]; average, read-out: MAP3K19 kinase occupancy, Average (%)",13.3%
same,receptor occupancy at 1 µM,"[19]; replicate 1, read-out: MAP3K19 kinase occupancy, Replicate 1 (%)",53.3%
same,receptor occupancy at 1 µM,"[19]; replicate 2, read-out: MAP3K19 kinase occupancy, Replicate 2 (%)",-26.6%
same,endometriotic lesion growth,[20],inhibiting endometriotic lesion growth
same,AUC(0-inf),"[21]; mouse, blood",478 ± 87.8 µM·h
same,AUC(0-t),"[21]; mouse, blood",418 ± 62.1 µM·h
same,Cmax,"[21]; mouse, blood",37.1 ± 4.88 µM
same,Tmax,"[21]; mouse, blood",1.17 ± 0.76 h
same,half-life,"[21]; mouse, blood",8.03 ± 1.25 h
same,MRT last,"[21]; mouse, blood, read-out: MRT0-t",7.23 ± 0.38 h
same,MRT inf,"[21]; mouse, blood, read-out: MRT0-∞",10.7 ± 1.52 h
same,CL/F,[21],0.11 ± 0.02 mg/(hr*μmol/L)/kg
same,Vd/F,[21],1.22 ± 0.05 mg/(μmol/L)/kg
